This data set is described as follows: Flash point of solvents, closed cup method. The class given is physicochemical. An excerpt: In one embodiment, the formulation contains a mixture of organic solvent and isopropyl alcohol.

The structures appear in SMILES notation.

Our source for the flash point values is US8158139B2 (priority 2004, dated 2012).

Regarding `OCc1ccccc1` [benzyl alcohol], the flash point amounted to 100.6 °C.
For `C=C(C)[C@H]1CC=C(C)CC1` [dipentene] the value was 46 °C.
As for `CCO` [ethyl alcohol], the flash point was found to be 14 °C.
For `CC(C)O` [isopropyl alcohol] the value was 11.7 °C; for `CC(O)CO` (centres unmarked) [propylene glycol], 99 °C.
